The source of these data is ChEMBL document CHEMBL3739335, “Phosphonooxymethyl Prodrug of Triptolide: Synthesis, Physicochemical Characterization, and Efficacy in Human Colon Adenocarcinoma and Ovarian Cancer Xenografts” (J Med Chem, 2015).

For data set [1], the target named is T1, Alkaline phosphatase, tissue-nonspecific isozyme (Bos taurus, UniProt P09487).
T1 sequence (P09487 whole entry): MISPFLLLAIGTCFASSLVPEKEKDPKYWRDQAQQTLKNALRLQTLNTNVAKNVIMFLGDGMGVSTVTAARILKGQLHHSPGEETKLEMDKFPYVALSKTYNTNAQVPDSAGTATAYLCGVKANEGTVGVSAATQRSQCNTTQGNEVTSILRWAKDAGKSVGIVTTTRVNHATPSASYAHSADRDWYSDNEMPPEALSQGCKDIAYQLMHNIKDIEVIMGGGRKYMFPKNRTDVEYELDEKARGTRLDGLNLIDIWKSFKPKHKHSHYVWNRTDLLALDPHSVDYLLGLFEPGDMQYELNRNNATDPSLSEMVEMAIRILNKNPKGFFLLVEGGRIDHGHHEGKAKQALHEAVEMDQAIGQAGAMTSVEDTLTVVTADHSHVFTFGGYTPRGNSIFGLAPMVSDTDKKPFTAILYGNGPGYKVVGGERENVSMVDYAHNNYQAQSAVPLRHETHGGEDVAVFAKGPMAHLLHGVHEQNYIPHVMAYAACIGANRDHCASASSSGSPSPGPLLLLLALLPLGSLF
The data set can be described thus: Drug level in glycine buffer treated with Sodium (((5bS,6aS,7aR,8R,8aS,9aS,9bS,10aS,10bS)-8a-Isopropyl-10b-methyl-3-oxo-1,2,3,5,5b,6,6a,8,8a,9a,9b,10b-dodecahydrotris-(oxireno)[2',3':4b,5;'',3'':6,7;2''',3''':8a,9]phenanthro[1,2-c]furan-8-yl)oxy)methyl Phosphate at pH 9.8 in presence of bovine intestinal mucosal alkaline phosphatase. Conditions: cattle, isolated protein.

The nature of data set [2]: Half life of the compound.

Take `C=O` [FORMALDEHYDE]: the Drug metabolism result in data set [1] is “metabolite_detected”. In addition, in data set [2], the half-life was 1.5 min.

`CC(C)[C@]12O[C@H]1[C@@H]1O[C@]13[C@]1(O[C@H]1C[C@H]1C4=C(CC[C@@]13C)C(=O)OC4)[C@@H]2O` [TRIPTOLIDE]: the Drug metabolism result in data set [1] is listed as “metabolite_detected”.

In general, half-life refers to the time in which the quantity being followed falls by half. Higher therefore signals slow loss.
